Experimental findings from patent US12643882B2, “Inhibitors of human respiratory syncytial virus and metapneumovirus” (priority 2022, dated 2026) are described below.

One assay concerns RSV-A2-GFP virus. Briefly: microbe, parasite or virus in culture. Format: cell-based, Human Respiratory Syncytial Virus. The procedure: To set up the assay, ARF vials were thawed in a 37° C. water bath and a control compound was resuspended in assay media DMEM (Dulbecco's Modified Eagle Medium) containing 2% FBS, 100 U/ml Penicillin-Streptomycin.
GFP sequence was derived from pJTI™ R4 Dest CMV N-EmGFP pA Vector (Invitrogen) and was cloned into the intergenic sequence between wild-type RSV-A2 P and M genes using standard recombineering techniques. Recombinant RSV-A2-GFP was propagated in Hep2 cells (human cells contain HeLa marker chromosomes and were derived via HeLa contamination, ATCC CCL-23) with a Multiplicity of Infection (MOI) of 0.1. Virus was harvested 3 days after infection by collecting all culture material and then freeze-thawing the mixture for 5 min. Working virus stocks were generated by thawing frozen viral cultures in 37° C. water bath, which were centrifuged at 218 g for 15 min at 4° C. 1/10 of 10×SPG (Biological Industries 06-3061-01-5A) were added and then mixed. The supernatant was aliquoted, frozen in liquid nitrogen, and then transferred to a −80° C. freezer for storage. Virus titer was determined by automated plaque assay in HEp-2 cells following methods described previously (Wen Z. et al.; 2019).
Calu-1 cells were purchased from ATCC (Cat #HTB-54) and were expanded in growth media (DMEM containing 10% FBS, 100 U/ml Penicillin-Streptomycin). To make ARF, cell culture media was removed and discarded and the cell layer was briefly rinsed with PBS to remove serum. 2.5 mL of TrypLE Express solution were added and cells incubated until dislodged, to which growth media was added and the cells were resuspended by gentle pipetting. Cells were counted for concentration and viability as determined by ViCell. Cells were centrifuged at RT, 300 g for 5 minutes to pellet cells. The supernatant was gently aspirated and the pellet was flicked to loosen cells. Cells were resuspended in an appropriate volume of freezing medium (DMEM containing 10% DMSO, 10% FBS, 100 U/ml Penicillin-Streptomycin) to achieve a concentration of 5×10^6 cells/mL. 1 mL aliquots of the cell suspension were transferred to freezing vials. The vials were put into an upright container in a −80° C. freezer overnight before transferring vials to liquid nitrogen for storage.
Assay ready freezedown (ARF, generation described separately) Calu-1 cells (ATCC HTB-54) were used. Compound plates were prepared by dispensing compounds dissolved in DMSO into the wells of a 384 well Corning® 3985 plate with an ECHO acoustic dispenser and compounds were tested in 10-point serial 3-fold dilution. […] To set up the assay, ARF vial(s) were thawed in a 37° C. water bath and were then resuspended into assay media (DMEM containing 2% FBS, 100 U/ml Penicillin-Streptomycin). Cells were counted using default parameters on ViCell and diluted to 20,000 cells/mL in assay media. RSV-A2-GFP virus was added to cells at 24,000 pfu/ml (MOI=1.2) and mixed by gentle inversion. 10 μL/well of 100% DMSO was dispensed as CellTiter-Glo (CTG) assay Max_E controls wells. The cells were dispensed at 50 μL/well using Bravo with 50 μL filtered tips into compound plates. Plates were covered with MicroClime lids, loaded with 7.5 mL of assay media to minimize evaporation, and were incubated at 37° C. and 5% CO2 for 96 hrs. Following incubation, distinct, GFP-expressing cells were counted using an Acumen imaging system with appropriate settings. A same-well CTG assay was performed by adding 10 μL/well reconstituted CellTiter-Glo reagent (Promega G7573) and plates were read on PerkinElmer Envision according to manufacturer's instructions. Raw data were loaded and analyzed in ActivityBase. Antiviral IC50 and cytotoxicity CC50 values were determined using a 4 parameter logistic fit based on the Levenberg-Marquardt algorithm. Model: 205-4 Parameter Logistic.

The subject of the next assay is hMPV-GFP virus. Description: microbe, parasite or virus in culture. Format: cell-based, human metapneumovirus. The procedure: GFP expressing rgHMPV #3 p3 was generated in Dr. Buchholz's lab (Biacchesi S. et al., J Virol. 2007 June; 81(11): 6057-6067) and propagated in VERO cells (ATCC Cat #CCL-81) with a Multiplicity of Infection (MOI) of 0.1. Virus was harvested 4 days after infection by collecting cultured material and was freeze-thaw cycled in liquid nitrogen twice. Working virus stocks were generated from thawing frozen samples in 37° C. water bath, which were centrifuged at 218 g for 15 min at 4° C. 1/10 of 10×SPG (Biological Industries 06-3061-01-5A) were added and then mixed. The supernatant was aliquoted, frozen in liquid nitrogen, and then transferred to a −80° C. freezer for storage. Virus titer was determined by performing titration test in 96-well plates and calculate approximate virus titer using GFP event/well data.
Compound plates were prepared by dispensing compounds dissolved in DMSO into wells of a 384 well Corning 3985 polystyrene flat clear bottom optical imaging microplate (202.5 nL/well) using an ECHO acoustic dispenser. Each compound was tested in 10-point serial 3-fold dilution (typical final concentrations: 40,300 nM-2 nM). […] Continuous culture of VERO cells was maintained in complete culture media (OptiMEM supplemented with 2 mM GlutaMAX™ and 100 U/ml Penicillin-Streptomycin). To set up the assay, VERO cells were trypsinized with 0.25% Trypsin-EDTA until cells were dislodged, then cells were re-suspended with 1 mL FBS. Cells were spun down at 300 g for 5 minutes and cells were washed twice with culture media and counted using default parameters on ViCell. Cells were then diluted to 100,000 cells/mL (5,000 cells/50 μL) in complete culture media+TrypLE Select (80 μL/mL). hMPV-GFP virus was added to cells at 125,000 pfu/mL (MOI=1.25) and were mixed by gentle inversion. 10 μL/well of 100% DMSO was dispensed to CellTiter-Glo (CTG) assay Max_E controls wells. Cells were dispensed at 50 μL/well using Bravo and 50 μL filtered tips into compound plates. Plates were covered with MicroClime lids and loaded with 7.5 mL of assay media to minimize evaporation. Plates were lightly shaken for 10 minutes at room temperature and then incubated at 37° C. and 5% CO2 for 48 hrs. Following incubation, distinct GFP-expressing cells were counted using an Acumen imaging system with appropriate settings. A same-well CTG assay was performed by adding 10 μL/well reconstituted CellTiter-Glo reagent (Promega G7573) and plates were read on PerkinElmer Envision according to manufacturer's instructions. Raw data were loaded and analyzed in ActivityBase. Antiviral IC50 and cytotoxicity CC50 values were determined using a 4 parameter logistic fit based on the Levenberg-Marquardt algorithm. Model: 205-4 Parameter Logistic. • References: Wen Z, Citron M, Bett A J, Espeseth A S, Vora K A, Zhang L, DiStefano D J. Development and application of a higher throughput RSV plaque assay by immunofluorescent imaging. J Virol Methods. 2019 January; 263:88-95. doi: 10.1016/j.jviromet.2018.10.022. Epub 2018 Oct. 28. PMD: 30381239. • Biacchesi S, Murphy B R, Collins P L, Buchholz U J. Frequent frameshift and point mutations in the SH gene of human metapneumovirus passaged in vitro. J Virol. 2007 June; 81(11):6057-67. doi: 10.1128/JVL.00128-07. Epub 2007 Mar. 21. PMID: 17376897; PMCID: MC 1900297. Assay Data

Setting [1] is: Calu-1 cells infected with RSV-A2-GFP, 96 hrs, GFP-expressing cells counted, read-out: RSV EC50.
The mark [2] stands for this setting: VERO cells infected with hMPV-GFP, 48 hrs, GFP-expressing cells counted, read-out: hMPV EC50.
Where [3] appears, read: read-out: RSV EC50, Calu-1 cells infected with RSV-A2-GFP, 96 hrs, GFP-expressing cells counted.
Setting [4] is: human metapneumovirus, Vero, 48 h, read-out: hMPV EC50, VERO cells infected with hMPV-GFP, 48 hrs, GFP-expressing cells counted.
[5] abbreviates: read-out: hMPV EC50, VERO cells infected with hMPV-GFP, 48 hrs, GFP-expressing cells counted.
Where [6] appears, read: human respiratory syncytial virus, Calu-1, 96 h, read-out: RSV EC50, Calu-1 cells infected with RSV-A2-GFP, 96 hrs, GFP-expressing cells counted.

Each structure is given as a SMILES string. Read-outs that look alike come from different tables or passages of the source.

In the case of `Cc1nc(-c2ncccn2)sc1C(=O)N1C[C@@H]2C(Oc3cc(C(C)(C)N)cc(C4=CCC(C)CC4)n3)[C@@H]2C1` (mixture of isomers) [Example 46, rac-((1R,5S,6s)-6-((4-(2-aminopropan-2-yl)-6-(4-methylcyclohex-1-en-1-yl)pyridin-2-yl)oxy)-3-azabicyclo[3.1.0]hexan-3-yl)(4-methyl-2-(pyrimidin-2-yl)thiazol-5-yl)methanone], the values for the EC50 in the assay on RSV-A2-GFP virus (setting [1]) and in the assay with hMPV-GFP virus (setting [2]) were less than 10 nM and more than 100 nM, respectively.
The like results for `Cc1nc(-c2ncccn2)sc1C(=O)N1C[C@@H]2C(Oc3cc(C(C)(C)N)cc(C4=CCC(C(F)(F)F)CC4)n3)[C@@H]2C1` (mixture of isomers) [Example 47, rac-((1R,5S,6s)-6-((4-(2-aminopropan-2-yl)-6-(4-(trifluoromethyl)cyclohex-1-en-1-yl)pyridin-2-yl)oxy)-3-azabicyclo[3.1.0]hexan-3-yl)(4-methyl-2-(pyrimidin-2-yl)thiazol-5-yl)methanone] were, in that order, less than 10 nM and more than 100 nM.
On to `Cc1nc(-c2ncccn2)sc1C(=O)N1C[C@@H]2[C@H]1C[C@H]2Oc1cc(C(C)(C)N)cc(-c2ccc(F)cc2)n1` (single isomer, unassigned) [Example 1A], for which the EC50 in the assay with RSV-A2-GFP virus (setting [3]) and with hMPV-GFP virus (setting [4]) was more than 100 nM in each case.
Consider `Cc1nc(-c2ncccn2)sc1C(=O)N1C[C@@H]2[C@H]1C[C@H]2Oc1cc(C(C)(C)N)cc(-c2ccc(F)cc2)n1` (single isomer, unassigned) [Example 1B], for which the EC50 is less than 10 nM in the assay on RSV-A2-GFP virus (setting [3]) and more than 100 nM in the assay on hMPV-GFP virus (setting [5]).
As for `CC(C)(N)c1cc(O[C@@H]2C[C@@H]3[C@H]2CN3C(=O)c2cnc(-c3ncccn3)s2)nc(-c2ccc(F)cc2)c1` (single isomer, unassigned) [Example 2], the figures for the EC50 with RSV-A2-GFP virus (setting [6]) and in the assay on hMPV-GFP virus (setting [4]) were 10 to 100 nM and more than 100 nM, respectively.
For the compound `CC(O)c1nn(-c2ncccn2)cc1C(=O)N1C[C@@H]2C(Oc3cc(C(C)(C)N)cc(-c4ccc(F)c(F)c4)n3)[C@@H]2C1` (single isomer, unassigned; enantiomer 1) [Example 96A], the EC50 is less than 10 nM in the assay on RSV-A2-GFP virus (setting [1]) and more than 100 nM in the assay on hMPV-GFP virus (setting [2]).
In the case of `Cc1nc(-c2ncccn2)sc1C(=O)N1C[C@H]2[C@H](Oc3cc(C(C)(C)N)cc(-c4ccc(F)cc4)n3)[C@@]2(C)C1` (single isomer, unassigned; enantiomer 1) [Example 103A], the EC50 in the assay with RSV-A2-GFP virus (setting [6]) was less than 10 nM; in the assay on hMPV-GFP virus (setting [4]) it was 10 to 100 nM.
The matching figures for `Cn1nc(-c2ncccn2)cc1C(=O)N1C[C@H]2[C@H](Oc3cc(C(C)(C)N)cc(-c4ccc(F)cc4)n3)[C@@]2(C)C1` (single isomer, unassigned; enantiomer 1) [Example 104A]: less than 10 nM and more than 100 nM.
On to `Cn1nc(-c2ncccn2)cc1C(=O)N1C[C@H]2[C@H](Oc3cc(C(C)(C)N)cc(-c4ccc(F)c(F)c4)n3)[C@@]2(C)C1` (single isomer, unassigned; enantiomer 1) [Example 105A], for which the EC50 is less than 10 nM in the assay with RSV-A2-GFP virus (setting [6]) and more than 100 nM in the assay with hMPV-GFP virus (setting [5]).
As for `Cc1nn(-c2ncccn2)cc1C(=O)N1C[C@H]2[C@H](Oc3cc(C(C)(C)N)cc(-c4ccc(F)c(F)c4)n3)[C@@]2(C)C1` (single isomer, unassigned; enantiomer 1) [Example 106A], the results for the EC50 in the assay on RSV-A2-GFP virus (setting [6]) and in the assay on hMPV-GFP virus (setting [5]) were less than 10 nM and more than 100 nM, respectively.
For `Cc1nn(-c2ncccn2)cc1C(=O)N1C[C@H]2[C@H](Oc3cc(C(C)(C)N)cc(-c4ccc(F)cc4)n3)[C@@]2(C)C1` (single isomer, unassigned; enantiomer 1) [Example 107A], the results for the EC50 in the assay on RSV-A2-GFP virus (setting [6]) and in the assay on hMPV-GFP virus (setting [4]) were less than 10 nM and more than 100 nM, respectively.
For the compound `Cc1nc(-c2ncccn2)sc1C(=O)N1C[C@@H]2[C@H](C1)[C@H]2Oc1cc(C(C)(C)N)cc(-c2ccc(F)c(F)c2)n1` [Example 15, ((1R,5S,6s)-6-((4-(2-aminopropan-2-yl)-6-(3,4-difluorophenyl)pyridin-2-yl)oxy)-3-azabicyclo[3.1.0]hexan-3-yl)(4-methyl-2-(pyrimidin-2-yl)thiazol-5-yl)methanone], the EC50 with RSV-A2-GFP virus (setting [1]) is less than 10 nM.
Still for that read-out and setting: the same measure for `Cc1ccc(-c2cc(C(C)(C)N)cc(O[C@H]3[C@@H]4CN(C(=O)c5sc(-c6ncccn6)nc5C)C[C@@H]43)n2)cc1` [Example 21, ((1R,5S,6s)-6-((4-(2-aminopropan-2-yl)-6-(p-tolyl)pyridin-2-yl)oxy)-3-azabicyclo[3.1.0]hexan-3-yl)(4-methyl-2-(pyrimidin-2-yl)thiazol-5-yl)methanone]: less than 10 nM; for `Cc1nn(-c2ccccc2)cc1C(=O)N1C[C@@H]2[C@H](C1)[C@H]2Oc1cc(C(C)(C)N)cc(-c2ccc(F)cc2)n1` [Example 74, ((1R,5S,6s)-6-((4-(2-aminopropan-2-yl)-6-(4-fluorophenyl)pyridin-2-yl)oxy)-3-azabicyclo[3.1.0]hexan-3-yl)(3-methyl-1-phenyl-1H-pyrazol-4-yl)methanone]: less than 10 nM.

The EC50 is the concentration at which the effect is half-maximal.
